# In patent publication US20180353445A1, “METHODS AND COMPOSITIONS RELATING TO PROTEASOME INHIBITOR RESISTANCE” (Whitehead Institute for Biomedical Research, priority 2017, published 2018):
# Legend:
# Format in all cases: cell-based, human
# T47D cells [1] = test: The glucose/galactose drug screen; settings: 10 mM Glucose or Galactose, Selleck anti cancer and natural product libraries
# Experimental: We conducted a second set of drug screens to identify unique sensitivities conferred by the Hi-OXPHOS state using parental T47D breast cancer cells (without 19S subunit suppression). For this screen, we used the NPC and CDL libraries as they contained the greatest number of hits in the Lo19S screen. We tested over 800 compounds at multiple concentrations and measured their effects on relative cell growth/viability when cells were grown under aerobic glycolysis conditions (glucose-supplemented medium) or forced mitochondrial respiration conditions (galactose-supplemented medium).
# The glucose/galactose drug screen—T47D cells growing in regular media were collected counted and after centrifugation cells were re-suspended in RPM1 media without glucose containing 10% dialyzed serum with the addition of either 10 mM glucose or 10 mM galactose, Cells were then plated at 1000 cells/well in 384-well opaque, white assay plates (Coming, N.Y.), 50 uL per well, and incubated overnight at 37°C./5% CO2. Application of the drug libraries and cell viability was executed as described above for the Lo19S drug screen.
# T47D cells [2] = test: Cell viability, T47D cells with doxycycline-inducible PSMD2 shRNA (KD) vs control
# Experimental: FIGS. 37A-37E: Subunit suppression results in highly specific drug sensitivity alteration. Schematic representation of the drug screen setup. (FIG. 37A) 147D cells harboring a doxycycline-inducible PSMD2 shRNA were grown in the presence or absence of doxycycline for 48 hr. Cells were then collected, washed, and plated in the absence of doxycycline for 24 hr prior to exposure different compounds. Relative cell numbers were measured 3 days later. […] (FIGS. 37C-37E) The relative viability of the PSMD2 knockdown (KD) versus the control was calculated for replica experiments and the log2 of the ratio is plotted for 349 compounds from the Selleck anti-cancer L3000 drug library that were tested in 4 concentrations (FIG. 37C), the Selleck natural product library (NPC) comprising 502 compounds in 5 doses (FIG. 37D), and the NIH bioactive compound library that includes 731 compounds in 4 doses (FIG. 37E). Specific compounds are annotated.
# The effect of transient PSMD2 reduction on growth of T47D cells in the presence of different proteasome inhibitors (bortezomib, MLN9708, carfilzomib, oprozornib) was tested. T47D cells harboring a doxycycline inducible control shRNA (GFP) or a doxycycline-inducible PSMD2 shRNA (TurhoRFP) were incubated with doxycycline for 3 days. Cells were then split and grown in the absence of Dox and proteasome inhibitors were then added at various concentrations. Cells were maintained in culture and then counted.
# For the generation of the T47D Tet-inducible PSMD2 knockdown cell line- the TRIPZ vector with an inducible shRNA targeting PSMD2 was purchased from Dhannacon (clone V3THS_403760). It was introduced to the T47D cells according to manufactures protocol and cells were selected with puromycin 1 μg/ml for one week. The cells were exposed to doxycycline for 24 hours and cells were FACS sorted for the top 10% of most RFP expressing cells (highest expression of shRNA). The cells were further cultured in the absence of doxycycline and PSMD2 knockdown was induced as specified in the relevant Examples. The TRIPZ control GFP vector was created by removing the turboRFP from the TRIPZ control vector by digestion with Agel and ClaI and replacing it with GFP amplified with primers flanking with Agel and Clal restriction sites.
# Cell Viability Assay—Relative cell growth and survival were measured in 96-well microplate format in the shRNA experiments and in 384 well format in the drug toxicity assays, by using the fluorescent detection of resazurin dye reduction as an endpoint (544 nm excitation and 590 run emission). 2,500 cells in 96 wells format or 1,000 cells in 384 well format were plated 24 hours before compound exposure (for 72 hours or indicated time). Each analysis was performed at least with three replicas.
# [3] = tested on: T47D cells harboring a doxycycline inducible PSMD2 KD shRNA construct; test: Viability of PSMD2 knockdown versus control T47D cells, dose response and combinations (CellTiter-Glo); settings: T47D, transient PSMD2 suppression versus control
# Experimental: Cell viability was measured by CellTiter-Glot Luminescent Cell Viability Assay 72 hours after addition of the compounds to cells.
# Cell viability was measured by CellTiter-Glo® Luminescent Cell Viability Assay 72 hours after addition of the compounds were added to cells.
# Cell viability was measured by CellTiter-Glolk Luminescent Cell Viability Assay 72 hours after addition of the compounds to cells.
# To directly test whether altered cellular metabolism can modulate the sensitivity of cancer cells to proteasome inhibitors, we engineered the breast cancer cell line T47D into Lo19S and increased OXPHOS states. Initially, we reconstituted the Lo19S state by transient suppression of the PSMD2 subunit of the 19S complex using an inducible shRNA.
# To induce a high OXPHOS (Hi-OXPHOS) state, we changed the carbon source in the cell culture media from glucose to galactose, which is poorly fermentable. This method has been previously shown to drive glutamine utilization by mitochondria and to thus increase mitochondrial respiration (Gohil et al., 2010). […] We reasoned that the Hi-OXPHOS signature we identified in Lo19S patient tumors may cooperate with the Lo19S state to further promote the ability of the cells to withstand proteotoxic stress.
# Cell viability—where indicated relative cell number following different drug treatment was conducted by plating cells at 1000 cells/well in 384 well plates. Indicated concentrations of compounds were added 24 hour after plating at least in triplicate for each condition. Viability was measured 72 hours after drug addition using cell titer-glo (Promega) according to manufactures protocol. Same protocol was applied for the experiments conducted for the Lo19S T47D, MCF7 and T47D in the context of altered carbon source only the cells were plated at 1000 cells/well in RPMI media (without glucose and with dialyzed serum) containing either 10 mM Glucose or lOmM galactose.
# T47D cells [4] = test: Drug library screen (Selleck anti-cancer, NPC, NIH bioactive), PSMD2 KD vs control T47D cells; settings: Selleck anti-cancer compound library screen
# Experimental: Schematic representation of the drug screen setup. (FIG. 37A) 147D cells harboring a doxycycline-inducible PSMD2 shRNA were grown in the presence or absence of doxycycline for 48 hr. Cells were then collected, washed, and plated in the absence of doxycycline for 24 hr prior to exposure different compounds. Relative cell numbers were measured 3 days later.
# The relative viability of the Lo19S versus control cells was calculated for replica experiments and the log2 of the ratio is plotted. […] The relative viability of the respiring cells (Hi-OXPHOS) (gal) versus the control cells (glu) was calculated for replica experiments and the log2 of the ratio is plotted.
# After 48 hours the cells were collected, counted, and plated at 1000 cells/well in 384 well plates in duplicates for each cell line. Compounds from the Selleck Chemicals anti-cancer compound library (349 drugs in 4 concentrations; […]) were pinned the next day and viability was measured after 72 hours by the reduction of Resazurin (Ex=530 run, Em=590nin). (See FIG. 37A for schematic of screen.)
# [5] = tested on: T47D cells with doxycycline inducible PSMD2 KD (Lo19S) versus control cells; test: Lo19S T47D drug screen (PSMD2 KD versus control cells, CellTiter-Glo); settings: for viability of PSMD2 KD versus control cells (log2 (shPSMD2/Control)): T47D, Lo19S state by dox-inducible PSMD2 shRNA, compound library screen, 72 h, CellTiter-Glo; for viability of PSMD2 KD versus control cells: Selleck natural product library (NPC) and NIH bioactive compound library, selectivity less than for the anti-cancer library hits
# Experimental: The effect of each drug on viability of cells was calculated by averaging the duplicate experiments. The data is plotted in FIG. 16 as the log2 of the ratio of viability of PSMD2 KD versus control cells (log2 (shPSMD2/Control)). […] The Selleck natural product library (NPC) comprising 502 compounds in 5 doses and the. NIH bioactive compound library that includes 731 compounds in 4 doses were also screened using the same system.
# A deeper understanding of the proteasome inhibitor resistant state could yield insights into the molecular mechanisms activated by cells to cope with proteotoxic stress and elucidate new therapeutic strategies for cancer. With these goals in mind, we screened mechanistically diverse small molecule libraries to identify compound sensitivities altered by the Lo19S and Hi-OXPHOS states. An initial screen was conducted in the isogenic T47D model with transient induction of the Lo19S state as described above, We evaluated >4300 mechanistically well-defined compounds within 4 libraries. The compounds included approved cancer drugs (Selleck anti-cancer library: CDL), common natural products (Natural product library: NPC) and an ^-NIH bioactives library (NIH). Each of these compounds was tested at ≥4 concentrations. (Table S5, data not shown), An additional 2866 compounds from the Boston University's Chemical Methodology and Library Development (CMLD-BU) small molecule collection was screened at a single dose (BULL, see Table S5).
# Generation of the Lo19S T47D cell line—For the generation of the T47D Tet-inducible PSMD2 knockdown cell line—the TRIPZ vector with an inducible shRNA targeting PSMD2 was purchased from Dharmacon (clone V3THS_403760). It was introduced to the T47D cells according to manufactures protocol and cells were selected with puromycin […] for one week. The cells were exposed to doxycycline for 24 hours and cells were FACS sorted for the top 10% of most RFP expressing cells (highest expression of shRNA). The cells were further cultured in the absence of doxycycline and PSMD2 knockdown was induced as specified in the text.
# After 48 hours the cells were collected counted and plated (in the absence of dox) at 1000 cells/well in 384-well opaque, white assay plates (Coming, NY), 50 uL per well, and incubated overnight at 37° C./5% CO2. Compound stocks from the Cancer drug library containing 349 bioactive compounds that were arrayed in dose 10 nM, 100 nM, 1 uM, 10 uM (Selleck anti-cancer compound library L3000), the natural products library containing 502 compounds that were utilized in 5 doses (dilution of 1:1000 of 2ug/ml, 0.2 ug/ml, 0.002/ug/ml, 0.0002 ug/ml), the NIH bioactive library including 731 drugs in dose of 10 nM, 100 nM, 1 uM, 10 uM and the Boston University's CMLD (Chemical Methodology and Library Development) compound deck containing 2866 compounds in one dose (10 uM), including novel chemotypes that uniquely probe three-dimensional space by employing stereochemical and positional variation within the molecular framework as diversity elements in library design. 50 nl of compounds were pin-transferred (V&P Scientific, CA, pin tool mounted onto Tecan Freedom Evo 150 MCA96 head, Tecan, Calif.) into duplicate assay plates and incubated for 72 h. The DMSO content was 0.1% within each well, Per plate, there are 32 wells of DMSO vehicle control and 32 wells of positive control compounds. After three days of incubation, 10 uL of CellTiter-Glo (Promega, Wis.) was added to each well, incubated for 10 minutes and the luminescence output was read on the M1000 Infinite Pro plate reader (Tecan, Calif.).
# [6] = tested on: IMR32 (reduced PSMD5) and Kelly neuroblastoma cells; test: Viability of IMR32 versus Kelly neuroblastoma cells (CellTiter-Glo); settings: ABT-263 versus more specific BCL2, BCL-XL and MCL-1 inhibitors
# Experimental: To determine whether these compounds also differentially affect cells with reduced expression of PSDMS, IMR32 and Kelly cells were each cultured in the presence of ABT-263, disulfiram, or elesclomol across a range of concentrations. Cell viability was measured by CellTiter-Glo® Luminescent Cell Viability Assay 72 hours after addition of the compound to cells. The fold viability relative to culture in the absence of the compound was determined for each cell line. […] In the experiment shown in FIG. 24, the lowest lower concentration of ABT-263 and disulfiram tested was 1 uM.
# ABT-263 targets several members of the BCL2 family, including BCL2 and BCL-XL.
compound,measurement,setting,value
C=C(C)[C@H]1Cc2c(ccc3c2O[C@@H]2COc4cc(OC)c(OC)cc4[C@@H]2C3=O)O1 [Rotenone],relative viability change of cells grown in glucose versus galactose,T47D cells [1],increased sensitivity
CC(C)C[C@H](NC(=O)CNC(=O)c1cc(Cl)ccc1Cl)B(O)O [ixazomib],fold increase in EC50 induced by transient PSMD2 knockdown (KD),"T47D cells [2]; T47D cells, PSMD2 KD vs control",50-100 fold
same,increase of proliferation inhibition EC50 on inducing the Lo19S state,[3],~4 fold
CC(C)C[C@H](NC(=O)[C@H](CCc1ccccc1)NC(=O)CN1CCOCC1)C(=O)N[C@@H](Cc1ccccc1)C(=O)N[C@@H](CC(C)C)C(=O)[C@@]1(C)CO1 [carfilzomib],resistance of cells harboring PSMD2 shRNA vs parental line (EC50),"T47D cells [2]; T47D, transient PSMD2 reduction",EC50 values increased considerably
CC[C@@H]1/C=C/C=C/C[C@H](C)[C@H](O)[C@](C)(O)C(=O)[C@H](C)[C@@H](O)[C@H](C)C(=O)[C@H](C)[C@@H](O)[C@H](C)/C=C/C(=O)O[C@H]2[C@@H](C)[C@@H](CC1)O[C@@]1(CC[C@@H](C)[C@@H](C[C@H](C)O)O1)[C@@H]2C [Oligomycin A],relative viability change of cells grown in glucose versus galactose,T47D cells [1],increased sensitivity
Nc1ccc2ncnc(NCCc3ccc(Oc4ccccc4)cc3)c2c1 [QNZ],relative viability change of cells grown in glucose versus galactose,T47D cells [1],increased sensitivity
"Nc1nc(Cl)nc2c1ncn2[C@H]1C[C@H](O)[C@@H](CO)O1 [cladribine, 2-chlorodeoxyadenosine]",growth inhibition of T47D cells with reduced level of PSMD2 vs control T47D cells,T47D cells [4],selectively inhibit growth
same,viability of PSMD2 KD versus control cells (log2 (shPSMD2/Control)),[5],selectively reduce the viability of PSMD2 KD cells versus control cells
COc1cc2c(cc1OC)[C@@H]1C(=O)c3ccc4c(c3O[C@@H]1CO2)C=CC(C)(C)O4 [Degeulin],relative viability change of cells grown in glucose versus galactose,T47D cells [1],increased sensitivity
CCCCc1oc2ccccc2c1C(=O)c1cc(I)c(OCCN(CC)CC)c(I)c1 [cordarone],viability of PSMD2 KD versus control cells,[5],selectively toxic to cells with PSMD2 knockdown
COc1ccc(-c2ccc3c(N4CCOCC4)nc(N4C[C@@H](C)O[C@@H](C)C4)nc3n2)cc1CO [Ku-0063794],growth inhibition of T47D cells with reduced level of PSMD2 vs control T47D cells,T47D cells [4],selectively inhibit growth
same,viability of PSMD2 KD versus control cells (log2 (shPSMD2/Control)),[5],selectively reduce the viability of PSMD2 KD cells versus control cells
CN1C(=O)[C@]23CC4=CC=C[C@H](O)[C@H]4N2C(=O)[C@@]1(CO)SS3 [Gliotoxin],viability of PSMD2 KD versus control cells,[5],selectively toxic to cells with PSMD2 knockdown
Cc1nn(C)c(COc2ccc(N3CCN(S(=O)(=O)N(C)C)CC3)cc2)c1-c1cccc2c(CCCOc3cccc4ccccc34)c(C(=O)O)n(CCN3CCOCC3)c12 [A-1210477],"preferential sensitivity of IMR32 versus Kelly cells, compared among BCL2 family inhibitors",[6],much greater for ABT-263
